Data on four molecules can be found in patent publication US20220142161A1, “METHOD OF IMPROVING THE GROWTH AND/OR THE YIELD OF PLANTS GROWN ON AGRICULTURALLY OR HORTICULTURALLY UTILIZED SUBSTRATES BY APPLYING A NITRICATION INHIBITOR ADDED TO THE IRRIGATION SYSTEM” (BASF SE, priority 2019, published 2022).

Assay [1] relates to nitrification in sandy loam soil (soil microbial biomass). Description: Soil incubation with simulated drip irrigation: NH4 recovery and nitrification inhibition. As to conditions: for % NH4 recovery of applied NH4: 20° C., ammonium sulfate; for % nitrification inhibition: calculated according to equation 1. The protocol:
(§1) In the examples a standardized sandy loam soil with coarse and very light texture was used.
For each test, three 500 ml plastic bottles were filled with 100 g of air dried soil each. Soil was moistened with deionized water to 50% of its water holding capacity. Then, the soil was incubated for two weeks at 20° C. to activate the microbial biomass. Ammonium sulfate was dissolved in deionized water in an amount corresponding to a nitrogen concentration of 10 g/L and supplemented by the desired amount of nitrogen inhibitor in an amount given in table 1. To each bottle 1 ml of the test solution was added by dripping the test solution with a pipette to the soil to simulate drop irrigation. Bottles were loosely capped to avoid contamination by dirt but to allow air exchange. The bottles were incubated at 20° C. for 0 to 42 days.
For determining the nitrogen content in the soil after incubation, to each bottle 300 mL of a 1% by weight solution of potassium sulfate in deionized water was added and the bottle was shaken for 2 h in a horizontal shaker at 150 rpm. Then the whole content of the bottle was filtered through a paper filter (MN 807 of Macherey-Nagel) and the filtrate was analyzed photometrically at 550 nm with respect to ammonium and nitrate by means of an auto analyzer AA11 of Merck.
Inhibition of nitrification was calculated by the following equation 1 (Bohland equation, DD 123771):
N (NO3) 1=Concentration of nitrogen contributed by NO3 without NI at the end of incubation
N (NO3) […]=Concentration of nitrogen contributed by NO3 with NI at the end of incubation
N (NO3) […]=Concentration of nitrogen contributed by NO3 at the beginning of incubation
The Examples were carried out in two separate series 1 and 2. All results are averages of 3 replications.

For assay [2], the system named is nitrification in sandy loam soil. The assay can be described thus: Leaching experiment in soil column with simulated drip irrigation. As to conditions: AS 90 mg N; NI/N (NH4) 0.8%; 9 days at 20° C., then about 43 mm precipitation; lower value = better inhibition. The protocol: as §1
100 g of air dried soil was filled in a 150 mL free draining column made of glass. Soil was moistened with deionized water to 50% of its water holding capacity. Then, the filled column was incubated for 24 h at 20° C. A solution of ammonium sulfate and optionally the nitrogen inhibitor in deionized water was deposited on the soil by means of a pipette to simulate drip irrigation. The amount of ammonium sulfate corresponds to 90 mg of nitrogen (N). The columns were then incubated for 9 days at 20° C. Then, deionized water was dripped to the soil corresponding to a precipitation of about 43 mm. Thereafter, the water was removed from the soil by applying a negative pressure until the moisture in the soil was 50% of its water holding capacity. The removed water (percolate) was collected and analyzed with regard to the total quantity of inorganic nitrogen (NH4 and NO3) as described for example 1. Since NH4 is more strongly bound to the soil compared to NO3 a lower nitrogen value indicates a better inhibition of nitrification.

[3] abbreviates: first series, DAT14, NI/N (NH4) 0.8%.
[4] abbreviates: first series, DAT28, NI/N (NH4) 0.8%.
Where [5] appears, read: first series, DAT42, NI/N (NH4) 0.8%.
Where [6] appears, read: second series, DAT7, NI/N (NH4) 0.4%.
The mark [7] stands for this setting: second series, DAT14, NI/N (NH4) 0.4%.
[8] abbreviates: second series, DAT28, NI/N (NH4) 0.4%.
[9] abbreviates: second series, DAT42, NI/N (NH4) 0.4%.
Setting [10] is: first series, DAT14, NI/N (NH4) 10%.
Where [11] appears, read: first series, DAT28, NI/N (NH4) 10%.
Where [12] appears, read: first series, DAT42, NI/N (NH4) 10%.
[13] abbreviates: second series, DAT7, NI/N (NH4) 0.8%.
Where [14] appears, read: second series, DAT14, NI/N (NH4) 0.8%.
[15] abbreviates: second series, DAT28, NI/N (NH4) 0.8%.
[16] abbreviates: second series, DAT42, NI/N (NH4) 0.8%.

Take “2-(3,4-dimethyl-1H-pyrazol-1-yl)succinic acid and 2-(4,5-dimethyl-1H-pyrazol-1-yl)succinic acid [DMPSA]”: the “inhibition of nitrification in drip irrigation compared to DCD and Nitrapyrin” value in assay [1] (conclusion from tables 1 and 2) was “longer and stronger inhibition of nitrification”. Further, the “% NH4 recovery of applied NH4” value is reported as 82% in assay [1] (setting [3]); 48% in assay [1] (setting [4]); 27% in assay [1] (setting [5]); 82% in assay [1] (setting [6]); 73% in assay [1] (setting [7]); 61% in assay [1] (setting [8]). In assay [1] (setting [9]), the “% NH4 recovery of applied NH4” value is 63%. Also, the “% nitrification inhibition” value is 74% in assay [1] (setting [3]); 59% in assay [1] (setting [4]); 34% in assay [1] (setting [5]); 76% in assay [1] (setting [6]); 75% in assay [1] (setting [7]); 66% in assay [1] (setting [8]). Besides, the “% nitrification inhibition” value in assay [1] (setting [9]) is on record as 56%. In assay [1] (half amount of DMPSA gives comparable nitrification inhibition), the “effectiveness relative to DMPP” value is given as “almost twice effective as DMPP”. For the same molecule, in assay [2], the “Total N: total quantity of inorganic nitrogen (NH4 and NO3) in percolate” value (from here on “Total N: total quantity”) is listed as 6.0 mg.
As to `N#CN=C(N)N` [DCD, dicyandiamide], the “% NH4 recovery of applied NH4” value in assay [1] (setting [10]) was 63%; in assay [1] (setting [11]) it was 13%; in assay [1] (setting [12]) it was 0%. For the same molecule, the “% nitrification inhibition” value in assay [1] (setting [10]) is reported as 59%; in assay [1] (setting [11]) it was 15%; in assay [1] (setting [12]) it was 3%.
Turning to `Cc1c[nH]nc1C.O=P(O)(O)O` [DMPP, 3,4-dimethyl pyrazole phosphate], the “% NH4 recovery of applied NH4” value was 75% in assay [1] (setting [13]), 71% in assay [1] (setting [14]), 64% in assay [1] (setting [15]) and 66% in assay [1] (setting [16]). In addition, the “% nitrification inhibition” value is recorded as 70% in assay [1] (setting [13]), 76% in assay [1] (setting [14]), 66% in assay [1] (setting [15]) and 61% in assay [1] (setting [16]). Moreover, the “Total N: total quantity” value in assay [2] is listed as 6.3 mg.
As to `Clc1cccc(C(Cl)(Cl)Cl)n1` [Nitrapyrin, 2-chloro-6-(trichloromethyl)pyridine], the “% NH4 recovery of applied NH4” value is 31% in assay [1] (setting [3]), 3% in assay [1] (setting [4]) and 0% in assay [1] (setting [5]). Further, the “% nitrification inhibition” value in assay [1] (setting [3]) is reported as 33%; in assay [1] (setting [4]) it was 4%; in assay [1] (setting [5]) it was −2%. The “Total N: total quantity” value in assay [2] is 7.1 mg.
